{
  "source": "patent US20170087562A1",
  "about": "“METHOD FOR DETERMINING TREATMENT RESPONSE OF CELLS” (NATIONAL CHENG KUNG UNIVERSITY, priority 2015, published 2017)",
  "key": {"lung cancer cells AS2 [1]": {"system": "lung cancer cells AS2", "test": "Corresponding cell analysis after Taxol (cell death, proliferation inhibition/cells kill)", "type": "cell-based", "excerpt": "The moving speed of the cell can be obtained by analyzing the moving distance perpendicular to the electrode at different time points. […]. […] The treatment response includes proliferation inhibition/cells kill which are the important indicators for determining whether the chemotherapy is effective on clinical. Therefore, the conclusion of the treatment response of cells to the treatment method can be obtained fast by using electrorotation, and the treatment effect of the clinical treatment can be estimated with high reliability, so that the analysis period indeed can be substantially shorten (24 hrs v.s. 48 hrs)."}, "lung cancer cells AS2 [2]": {"system": "lung cancer cells AS2", "test": "Traveling-wave dielectrophoresis moving speed of cells after Taxol", "type": "cell-based", "conditions": "24 hours after treatment", "excerpt": "The principle of the traveling-wave dielectrophoresis is similar with the electrorotation. The test cells can be pushed away by the electrodes when applying a negative electrophoresis force (nDEP) through two set of parallel electrode 13 and 14, so that the influence on the moving condition resulting from the friction between the test cells and chip surface can be reduced. The two set of parallel electrode 13 and 14 individually include several electrodes having a width ranged from 0.1 to 1000 microns, preferably 0.5 to 100 microns, for example 1 micron, 20 microns, 40 microns, 50 microns, or 60 microns; the width of the intervals ranged from 0.1 to 1000 microns, preferably 0.5 to 100 microns, for example 1 micron, 20 microns, 40 microns, 50 microns, or 60 microns. Moreover, in this uneven electric field, the electric signal has a periodic variation in value and direction (such as a sine wave), for example, 360/N of sine wave signal are subsequently applied to the parallel electrodes, wherein N is preferably equal to 4, so that the sine wave of the electrodes have intervals of 90 degrees from each other, but N is not limited thereto. The wave signal of each electrode continuously changes the phase thereof by time to provide the source of the moving force for traveling-wave electrophoresis. […]"}},
  "data": [
    {"smiles": "CC(=O)O[C@H]1C(=O)[C@@]2(C)[C@H]([C@H](OC(=O)c3ccccc3)[C@]3(O)C[C@H](OC(=O)[C@H](O)[C@@H](NC(=O)c4ccccc4)c4ccccc4)C(C)=C1C3(C)C)[C@]1(OC(C)=O)CO[C@@H]1C[C@@H]2O", "note": "[Taxol]", "values": [
      {"measurement": "proliferation inhibition/cells kill", "setting": "lung cancer cells AS2 [1]; 24 hours", "value": "obvious"},
      {"measurement": "cell death", "setting": "lung cancer cells AS2 [1]; 48 hours", "value": "obvious"},
      {"measurement": "proliferation inhibition/cells kill", "setting": "lung cancer cells AS2 [1]; 48 hours", "value": "obvious"},
      {"measurement": "moving speed versus placebo (only DMSO)", "setting": "lung cancer cells AS2 [2]", "value": "much slower"}
    ]}
  ]
}
